Reference: US8772499B2, “TRPV3 modulators” (AbbVie Inc., priority 2011, dated 2014)

Assays:
[1] = tested on: TRPV3; conditions: TRPV3 agonist, relatively weak and nonspecific across TRPs; cited from earlier work
[2] = In vitro human microsomal stability assay; type: in vitro ADME; conditions: human, microsomes, 0.5 h, 0.5 μM, pH 7.4
Procedure, shortened: (§1)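 Metabolic stability measured in Sprague-Dawley rat or human liver microsomes at 37 °C. Reactions supplemented with NADPH.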

[3] = tested on: chronic constriction injury (CCI) model of neuropathic pain; test: In vivo chronic constriction injury (CCI) model of neuropathic pain, mechanical allodynia (von Frey); parameters: species or system CD1 mice; conditions: Mus musculus, po, 1 h, 100 mg/kg oral dose, mechanical allodynia 1 hour after dosing, CCI mice, average of eight mice; vehicle 0%, control 100%; read-out: % EFFECT
Procedure: Test compounds were evaluated for analgesic effect in an in vivo chronic constriction injury (CCI) model of neuropathic pain. CD1 mice (Charles River) were used for these studies. Prior to testing (2-4 weeks) animals underwent a surgical procedure consisting of approximately 3 loose ligatures around the sciatic nerve. Following sterilization procedures, under isofluorane anesthetic, a 1.5 cm incision was made dorsal to the pelvis. The biceps femoris and gluteous superficialis (right side) were separated and the sciatic nerve exposed, isolated, and 2-4 loose ligatures (5-0 chromic gut) with less than 1 mm spacing were placed around it. Following hemostasis, the wound was sutured (layer of muscle closed with 5-0 nylon suture, and the wound closed with surgical staples) and coated with iodine. The mice were allowed to recover on a warming plate and were returned to their home cages (soft bedding) when able to walk on their own.
Two to four weeks after the surgery, test compound was administered orally (PO) in these mice, and mechanical allodynia was evaluated 1 hour after oral dosing where the threshold to response was assessed using calibrated von Frey monofilaments. The von Frey monofilaments were applied to the hind paw at increasing forces until the animal responded by lifting its paw. Normally, the force of the von Frey monofilament was innocuous and only in the altered state (allodynia or hyperalgesia) did the animals respond to this stimulation. […] At the end of the experiment, after behavioral testing, plasma (and in some instances brain tissue) was taken for exposure analysis.
Each test compound was evaluated in eight different mice. The data reported in Table 3 represent the average value of the approximate percent effect of each compound in relieving neuropathic pain in mice receiving 100 mg/kg oral dose of the test compound. The grams of force needed to elicit a withdrawal response from the injured mouse that was challenged with vehicle was assigned a 0% effect, while the grams of force needed to elicit a withdrawal response from the control was given a 100% effect.

[4] = target: T1, human TRPV3 (Homo sapiens, UniProt Q8NET8); test: In vitro antagonism of recombinant human TRPV3 activation (FLIPR Tetra calcium assay); type: cell-based; conditions: HEK293 cells stably expressing human TRPV3; agonist 2-APB at 80 μM; actual measured value shown parenthetically; in most cases average of at least two runs; read-out: IC50
T1 construct: expressed in transfected cells
T1 sequence (Q8NET8 1-790): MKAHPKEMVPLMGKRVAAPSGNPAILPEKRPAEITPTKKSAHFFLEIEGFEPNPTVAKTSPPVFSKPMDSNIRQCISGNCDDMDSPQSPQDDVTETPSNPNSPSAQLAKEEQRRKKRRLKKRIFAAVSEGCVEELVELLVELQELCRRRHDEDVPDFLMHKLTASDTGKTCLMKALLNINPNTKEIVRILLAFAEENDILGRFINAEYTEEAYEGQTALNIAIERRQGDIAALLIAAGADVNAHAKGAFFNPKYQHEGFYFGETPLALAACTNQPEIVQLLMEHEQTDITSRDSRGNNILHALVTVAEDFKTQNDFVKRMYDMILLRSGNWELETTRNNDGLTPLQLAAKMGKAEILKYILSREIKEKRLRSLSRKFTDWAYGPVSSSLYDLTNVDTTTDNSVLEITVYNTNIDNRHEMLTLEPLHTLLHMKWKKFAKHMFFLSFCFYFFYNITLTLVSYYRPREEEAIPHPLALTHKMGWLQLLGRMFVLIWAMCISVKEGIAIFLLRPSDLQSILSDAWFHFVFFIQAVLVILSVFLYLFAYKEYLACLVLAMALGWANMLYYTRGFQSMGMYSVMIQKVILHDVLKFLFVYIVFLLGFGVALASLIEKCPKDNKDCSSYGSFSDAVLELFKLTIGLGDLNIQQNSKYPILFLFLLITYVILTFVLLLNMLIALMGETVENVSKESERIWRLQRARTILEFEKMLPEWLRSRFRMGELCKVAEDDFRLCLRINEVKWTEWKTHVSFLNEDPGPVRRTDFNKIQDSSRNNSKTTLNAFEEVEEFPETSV
Procedure, shortened: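 HEK293 cells stably expressing human TRPV3, loaded with Calcium-4 dye for 90–120 min, received compound in DPBS, then 80 μM 2-APB (EC80) 3 min later. Max-minus-min fluorescence expressed as % of 2-APB response without antagonist; IC50 values mostly averages of n≥2 runs.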

[5] = In vitro rat microsomal stability assay; type: in vitro ADME, rat (Sprague-Dawley); conditions: Sprague-Dawley, rat, microsomes, 0.5 h, 0.5 μM, pH 7.4
Procedure, shortened: as §1

Question: For c1ccc(B(OB(c2ccccc2)c2ccccc2)c2ccccc2)cc1 [DPBA, diphenylboronic anhydride], which EC50 [1] is on record?
Answer: Its EC50 is about 40 µM.

Question: Which EC50 [1] does the source give for NCCOB(c1ccccc1)c1ccccc1 [Example 2-APB, 2-aminoethoxydiphenylborate] here?
Answer: Its EC50 is about 40 µM.

Question: Which “HUMAN MICROSOMAL STABILITY (% REMAINING AFTER 30 MINUTES)” value [2] does the source give for O[C@H](c1ccccn1)[C@]1(c2ccc(Cl)c(Cl)c2)CCO1 [Example 136, (R)-[(2R)-2-(3,4-dichlorophenyl)oxetan-2-yl](pyridin-2-yl)methanol] here?
Answer: The value was 24%.

Question: And the inhibition in vivo at 100 mg/kg [3]?
Answer: The inhibition in vivo at 100 mg/kg was 52%.

Question: What about the IC50 [4] of the same molecule?
Answer: The IC50 was 390 nM.

Question: What about the “RAT MICROSOMAL STABILITY (% REMAINING AFTER 30 MINUTES)” value [5] of the same molecule?
Answer: Its value is 9.5%.

Question: For OC1CC(c2ccc(C(F)(F)F)cc2)(C(O)c2ccccn2)C1 [Example 201, trans-3-[(S)-hydroxy(pyridin-2-yl)methyl]-3-[4-(trifluoromethyl)phenyl]-cyclobutanol], which “HUMAN MICROSOMAL STABILITY (% REMAINING AFTER 30 MINUTES)” value [2] is on record?
Answer: Its value is 73%.

Question: And the inhibition in vivo at 100 mg/kg [3]?
Answer: The inhibition in vivo at 100 mg/kg was 64%.

Question: What about the IC50 [4] of the same molecule?
Answer: The IC50 was 6010 nM.

Question: And the “RAT MICROSOMAL STABILITY (% REMAINING AFTER 30 MINUTES)” value [5]?
Answer: The value was over 85%.

Question: For CN[C@@H]1CCC[C@H]1[C@@H](O)C1(c2ccc(Cl)c(Cl)c2)CCC1 [Example 228, (R)-[1-(3,4-dichlorophenyl)cyclobutyl][(1R,2R)-2-(methylamino)-cyclopentyl]methanol], which “HUMAN MICROSOMAL STABILITY (% REMAINING AFTER 30 MINUTES)” value [2] is on record?
Answer: The value was 70%.

Question: What about the inhibition in vivo at 100 mg/kg [3] of the same molecule?
Answer: The inhibition in vivo at 100 mg/kg was 52%.

Question: What about the IC50 [4] of the same molecule?
Answer: The IC50 was 2520 nM.

Question: What about the “RAT MICROSOMAL STABILITY (% REMAINING AFTER 30 MINUTES)” value [5] of the same molecule?
Answer: The value was 25%.

Question: Which “HUMAN MICROSOMAL STABILITY (% REMAINING AFTER 30 MINUTES)” value [2] does the source give for C[C@]1(O)C[C@@](c2ccc(OC(F)(F)F)cc2)([C@@H](O)c2ccccn2)C1 [Example 250, cis-3-[(R)-hydroxy(pyridin-2-yl)methyl]-1-methyl-3-[4-(trifluoromethoxy)-phenyl]cyclobutanol] here?
Answer: The value was 70%.

Question: What about the inhibition in vivo at 100 mg/kg [3] of the same molecule?
Answer: Its inhibition in vivo at 100 mg/kg is 57%.

Question: What about the IC50 [4] of the same molecule?
Answer: The IC50 was 9230 nM.

Question: What about the “RAT MICROSOMAL STABILITY (% REMAINING AFTER 30 MINUTES)” value [5] of the same molecule?
Answer: The value was 70%.

Question: For C[C@]1(O)C[C@@](c2cccc(OC(F)(F)F)c2)([C@H](O)c2ccccn2)C1 [Example 262, cis-3-[(S)-hydroxy(pyridin-2-yl)methyl]-1-methyl-3-[3-(trifluoromethoxy)-phenyl]cyclobutanol], which “HUMAN MICROSOMAL STABILITY (% REMAINING AFTER 30 MINUTES)” value [2] is on record?
Answer: The value was 48%.

Question: And the inhibition in vivo at 100 mg/kg [3]?
Answer: Its inhibition in vivo at 100 mg/kg is 45%.

Question: And the IC50 [4]?
Answer: The IC50 was 630 nM.

Question: What about the “RAT MICROSOMAL STABILITY (% REMAINING AFTER 30 MINUTES)” value [5] of the same molecule?
Answer: Its value is 57%.

Question: For OC1CC(c2cc(C(F)(F)F)ccn2)(C(O)c2ccccn2)C1 [Example 283, trans-3-[(S)-hydroxy(pyridin-2-yl)methyl]-3-[4-(trifluoromethyl)pyridin-2-yl]cyclobutanol], which “HUMAN MICROSOMAL STABILITY (% REMAINING AFTER 30 MINUTES)” value [2] is on record?
Answer: The value was over 85%.

Question: And the inhibition in vivo at 100 mg/kg [3]?
Answer: The inhibition in vivo at 100 mg/kg was 49%.

Question: And the IC50 [4]?
Answer: Its IC50 is 690 nM.

Question: And the “RAT MICROSOMAL STABILITY (% REMAINING AFTER 30 MINUTES)” value [5]?
Answer: The value was over 85%.

Question: With OC1CC(c2ccnc(C(F)(F)F)c2)(C(O)c2ccccn2)C1 [Example 306, trans-3-[(S)-hydroxy(pyridin-2-yl)methyl]-3-[2-(trifluoromethyl)pyridin-4-yl]cyclobutanol] as the molecule, how does the “HUMAN MICROSOMAL STABILITY (% REMAINING AFTER 30 MINUTES)” value [2] read?
Answer: Its value is over 85%.

Question: And the inhibition in vivo at 100 mg/kg [3]?
Answer: The inhibition in vivo at 100 mg/kg was 0%.

Question: And the IC50 [4]?
Answer: Its IC50 is 140 nM.

Question: What about the “RAT MICROSOMAL STABILITY (% REMAINING AFTER 30 MINUTES)” value [5] of the same molecule?
Answer: The value was over 85%.
